PubChem BioAssay AID200 (DTP/NCI, 2004)
Several values for one entry are separate records, joined by “and”; a condition that tells them apart may be missing. Equal values may be shown once. Inconclusive results and toxic doses are left out.

Test system: B6C3F1 mice, B16 melanoma ip, median survival T/C
Assay: NCI In Vivo Anticancer Drug Screen. Data for tumor model B16 Melanoma (intraperitoneal) in B6C3F1 mice
Details: endpoint: median survival time, higher = longer survival
Method: The antitumor activity of compounds was measured in mice bearing transplantable tumors. Survival or tumor size were measured and the results are expressed as the measurement made in the treated group (T) divided by the measurement made in the vehicle treated control group (C). The tumor model used in this assay is B16 Melanoma (intraperitoneal) in B6C3F1 mice

[1] = dose: 1.25 mg/kg/injection, schedule: Q01DX009 (ip), vehicle: water
[2] = dose: 6.25 mg/kg/injection, schedule: Q01DX009 (ip), vehicle: saline with Tween-80
[3] = dose: 12.5 mg/kg/injection, schedule: Q01DX009 (ip), vehicle: saline with Tween-80
[4] = dose: 25.0 mg/kg/injection, schedule: Q01DX009 (ip), vehicle: saline with Tween-80
[5] = dose: 50.0 mg/kg/injection, schedule: Q01DX009 (ip), vehicle: saline with Tween-80

COC(=O)NC1C(C)OC(OC2C/C=C(/C)C3C=CC4C(OC5CC(OC6CCC(OC7CC(O)C(OC8CCC(O)C(C)O8)C(C)O7)C(C)O6)C(OC(C)=O)C(C)O5)C(C)CC(C)C4C3(C)/C(O)=C3/C(=O)OC4(CC(C=O)=CC(O)C4/C=C\2C)C3=O)CC1(C)[N+](=O)[O-] (stereo not drawn)
T/C [1]: 114 % of control
T/C (dose: 1.69 mg/kg/injection, schedule: Q03HX024 (ip), vehicle: water): 165 % of control
T/C (dose: 2.4 mg/kg/injection, schedule: Q01DX005 (ip), vehicle: water): 124 % of control
T/C (dose: 2.43 mg/kg/injection, schedule: Q01DX005 (iv), vehicle: water): 110 % of control
T/C (dose: 2.5 mg/kg/injection, schedule: Q01DX009 (sc), vehicle: water): 98 % of control
T/C (dose: 2.53 mg/kg/injection, schedule: Q03HX024 (ip), vehicle: water): 186 % of control
T/C (dose: 3.0 mg/kg/injection, schedule: Q01DX005 (iv), vehicle: water): 99 % of control
T/C (dose: 3.4 mg/kg/injection, schedule: Q03HX008 (ip), vehicle: water): 161 % of control
T/C (dose: 3.6 mg/kg/injection, schedule: Q01DX005 (ip), vehicle: water): 160 % of control
T/C (dose: 3.63 mg/kg/injection, schedule: Q01DX005 (iv), vehicle: water): 114 % of control
T/C (dose: 3.77 mg/kg/injection, schedule: Q03HX024 (ip), vehicle: water): 173 % of control
T/C (dose: 4.5 mg/kg/injection, schedule: Q01DX005 (iv), vehicle: water): 105 % of control
T/C (dose: 4.5 mg/kg/injection, schedule: Q01DX009 (ip), vehicle: water): 161 % of control
T/C (dose: 5.0 mg/kg/injection, schedule: Q01DX009 (sc), vehicle: water): 97 % of control
T/C (dose: 5.08 mg/kg/injection, schedule: Q03HX008 (ip), vehicle: water): 171 % of control
T/C (dose: 5.3 mg/kg/injection, schedule: Q01DX005 (ip), vehicle: water): 177 % of control
T/C (dose: 5.4 mg/kg/injection, schedule: Q01DX005 (ip), vehicle: water): 165 % of control
T/C (dose: 5.41 mg/kg/injection, schedule: Q01DX005 (iv), vehicle: water): 108 % of control
T/C (dose: 5.63 mg/kg/injection, schedule: Q03HX024 (ip), vehicle: water): 203 % of control
T/C (dose: 6.0 mg/kg/injection, schedule: Q01DX009 (sc), vehicle: water): 101 % of control
T/C (dose: 6.7 mg/kg/injection, schedule: Q01DX005 (iv), vehicle: water): 105 % of control
T/C (dose: 6.7 mg/kg/injection, schedule: Q01DX009 (ip), vehicle: water): 165 % of control
T/C (dose: 6.74 mg/kg/injection, schedule: Q01DX009 (oral), vehicle: water): 98 % of control
T/C (dose: 8.0 mg/kg/injection, schedule: Q01DX005 (ip), vehicle: water): 153 % of control and 159 % of control
T/C (dose: 8.0 mg/kg/injection, schedule: Q01DX005 (iv), vehicle: water): 108 % of control and 120 % of control
T/C (dose: 8.08 mg/kg/injection, schedule: Q01DX005 (iv), vehicle: water): 98 % of control
T/C (dose: 8.1 mg/kg/injection, schedule: Q01DX005 (ip), vehicle: water): 175 % of control
T/C (dose: 9.0 mg/kg/injection, schedule: Q01DX009 (sc), vehicle: water): 109 % of control
T/C (dose: 9.1 mg/kg/injection, schedule: Q04DX003 (ip), vehicle: water): 177 % of control
T/C (dose: 10.0 mg/kg/injection, schedule: Q01DX005 (iv), vehicle: water): 103 % of control
T/C (dose: 10.0 mg/kg/injection, schedule: Q01DX009 (sc), vehicle: water): 100 % of control
T/C (dose: 10.05 mg/kg/injection, schedule: Q01DX009 (oral), vehicle: water): 102 % of control
T/C (dose: 12.0 mg/kg/injection, schedule: Q01DX005 (ip), vehicle: water): 171 % of control and 197 % of control
T/C (dose: 12.0 mg/kg/injection, schedule: Q01DX005 (iv), vehicle: water): 108 % of control and 105 % of control
T/C (dose: 12.06 mg/kg/injection, schedule: Q01DX001 (iv), vehicle: water): 116 % of control
T/C (dose: 12.1 mg/kg/injection, schedule: Q01DX005 (iv), vehicle: water): 110 % of control
T/C (dose: 13.0 mg/kg/injection, schedule: Q01DX005 (ip), vehicle: water): 162 % of control
T/C (dose: 13.0 mg/kg/injection, schedule: Q01DX009 (sc), vehicle: water): 101 % of control
T/C (dose: 13.5 mg/kg/injection, schedule: Q04DX003 (ip), vehicle: water): 165 % of control
T/C (dose: 15.0 mg/kg/injection, schedule: Q01DX005 (iv), vehicle: water): 110 % of control
T/C (dose: 15.0 mg/kg/injection, schedule: Q01DX009 (ip), vehicle: water): 180 % of control
T/C (dose: 15.0 mg/kg/injection, schedule: Q01DX009 (oral), vehicle: water): 103 % of control
T/C (dose: 18.0 mg/kg/injection, schedule: Q01DX001 (ip), vehicle: water): 191 % of control
T/C (dose: 18.0 mg/kg/injection, schedule: Q01DX005 (ip), vehicle: water): 112 % of control
T/C (dose: 18.0 mg/kg/injection, schedule: Q01DX005 (iv), vehicle: water): 110 % of control and 97 % of control and 104 % of control
T/C (dose: 18.1 mg/kg/injection, schedule: Q01DX005 (ip), vehicle: water): 159 % of control
T/C (dose: 20.0 mg/kg/injection, schedule: Q01DX005 (ip), vehicle: water): 121 % of control
T/C (dose: 20.0 mg/kg/injection, schedule: Q01DX009 (sc), vehicle: water): 95 % of control and 103 % of control
T/C (dose: 20.2 mg/kg/injection, schedule: Q04DX003 (ip), vehicle: water): 178 % of control
T/C (dose: 22.39 mg/kg/injection, schedule: Q01DX009 (oral), vehicle: water): 96 % of control
T/C (dose: 27.0 mg/kg/injection, schedule: Q01DX001 (ip), vehicle: water): 203 % of control
T/C (dose: 27.0 mg/kg/injection, schedule: Q01DX001 (iv), vehicle: water): 108 % of control
T/C (dose: 27.0 mg/kg/injection, schedule: Q01DX005 (iv), vehicle: water): 112 % of control and 106 % of control
T/C (dose: 30.0 mg/kg/injection, schedule: Q01DX009 (sc), vehicle: water): 97 % of control
T/C (dose: 33.41 mg/kg/injection, schedule: Q01DX009 (oral), vehicle: water): 101 % of control
T/C (dose: 40.5 mg/kg/injection, schedule: Q01DX001 (ip), vehicle: water): 226 % of control
T/C (dose: 40.5 mg/kg/injection, schedule: Q01DX001 (iv), vehicle: water): 121 % of control
T/C (dose: 49.87 mg/kg/injection, schedule: Q01DX009 (oral), vehicle: water): 100 % of control

CS(=O)(=O)c1ncc(Br)cn1
T/C (dose: 3.12 mg/kg/injection, schedule: Q01DX009 (ip), vehicle: saline with Tween-80): 100 % of control
T/C (dose: 3.13 mg/kg/injection, schedule: Q01DX009 (ip), vehicle: saline with Tween-80): 101 % of control
T/C [2]: 99 % of control and 105 % of control
T/C [3]: 98 % of control and 106 % of control
T/C [4]: 96 % of control and 104 % of control
T/C [5]: 109 % of control and 97 % of control
T/C (dose: 100.0 mg/kg/injection, schedule: Q01DX009 (ip), vehicle: saline with Tween-80): 100 % of control and 104 % of control

Cc1c2ccncc2c(C)c2c1[nH]c1ccccc12
T/C (dose: 1.25 mg/kg/injection, schedule: Q01DX009 (ip), vehicle: distilled water + Tween-80): 106 % of control
T/C [1]: 105 % of control
T/C (dose: 2.5 mg/kg/injection, schedule: Q01DX009 (ip), vehicle: distilled water + Tween-80): 117 % of control
T/C (dose: 2.5 mg/kg/injection, schedule: Q01DX009 (ip), vehicle: water): 104 % of control
T/C (dose: 5.0 mg/kg/injection, schedule: Q01DX009 (ip), vehicle: water): 117 % of control
T/C (dose: 10.0 mg/kg/injection, schedule: Q01DX009 (ip), vehicle: distilled water + Tween-80): 151 % of control
T/C (dose: 20.0 mg/kg/injection, schedule: Q01DX009 (ip), vehicle: distilled water + Tween-80): 173 % of control

c1cc(-c2cc3ccc(C4=NCCN4)cc3[nH]2)ccc1C1=NCCN1
T/C (dose: 3.12 mg/kg/injection, schedule: Q01DX009 (ip), vehicle: saline): 111 % of control
T/C (dose: 3.12 mg/kg/injection, schedule: Q01DX009 (ip), vehicle: suspension in saline): 104 % of control
T/C (dose: 6.25 mg/kg/injection, schedule: Q01DX009 (ip), vehicle: saline): 108 % of control
T/C (dose: 6.25 mg/kg/injection, schedule: Q01DX009 (ip), vehicle: suspension in saline): 94 % of control
T/C (dose: 12.5 mg/kg/injection, schedule: Q01DX009 (ip), vehicle: saline): 100 % of control
T/C (dose: 12.5 mg/kg/injection, schedule: Q01DX009 (ip), vehicle: suspension in saline): 96 % of control
T/C (dose: 25.0 mg/kg/injection, schedule: Q01DX009 (ip), vehicle: saline): 95 % of control

[NH-]C(CCC(N)=O)C(=O)O.[NH-]C(CCC(N)=O)C(=O)O.[Zn+2] (stereo not drawn)
T/C [2]: 95 % of control
T/C [3]: 93 % of control
T/C [4]: 98 % of control
T/C [5]: 90 % of control
